We go through one compound from US8263597B2, “Indazole compounds as CCR1 receptor antagonists” (Boehringer Ingelheim International GmbH, priority 2008, dated 2012).

Structures are written as SMILES.

The target in this assay is T1, CCR1 (Homo sapiens, UniProt P32246).
T1 sequence (P32246 1-355): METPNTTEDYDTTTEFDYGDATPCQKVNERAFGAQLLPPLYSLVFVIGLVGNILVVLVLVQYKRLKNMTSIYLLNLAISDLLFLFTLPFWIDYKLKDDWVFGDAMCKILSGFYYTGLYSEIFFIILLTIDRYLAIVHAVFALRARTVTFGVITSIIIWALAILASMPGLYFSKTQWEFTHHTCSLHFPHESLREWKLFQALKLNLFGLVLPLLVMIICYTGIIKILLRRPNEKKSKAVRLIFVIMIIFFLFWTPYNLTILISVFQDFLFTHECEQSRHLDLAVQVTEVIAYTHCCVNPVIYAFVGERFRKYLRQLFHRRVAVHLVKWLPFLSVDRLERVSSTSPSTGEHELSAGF
Kind of assay: Calcium flux in response to MIP-1 alpha in CCR1-transfected cells, Method B (Calcium 4 dye, […] FDSS6000). It is filed as cell-based. Particulars: cells stably expressing recombinant CCR1 and G-alpha-16; MIP-1 alpha at EC80; 30 minutes at 37 C then 30 minutes at room temperature. How it is done:
Compounds are assessed for the ability to block the interaction of CCR1 and its ligand in a functional cellular assay measuring calcium flux in response to MIP-1α in CCR1-transfected cells.
Method B: Non-adherent cells purchased from Chemicon Corporation (HTS005C), stably expressing recombinant CCR1 and G-alpha-16 are grown in RPMI 1640 medium (Mediatech 10-080-CM) supplemented with 10% FBS, 0.4 mg/mL Geneticin and penicillin/streptomycin. On the day of the assay, the cells are loaded with Calcium 4 dye (Molecular Devices R7448) with Probenecid (Invitrogen P346400) at 8E5 cells/mL for 1 hour at room temperature. After 1 hour, they are seeded in a 384-well tissue culture-treated plate at a density of 20,000 cells/well. Appropriately diluted test compound is added to the well to achieve a top concentration of 3,000 nM (diluted 4-fold with 10 doses total). The final concentration of DMSO is 1%. The buffer is HBSS (Invitrogen 14025) with 20 mM HEPES at pH 7.4. The cells incubate 30 minutes at 37 C and then 30 minutes at room temperature. The plates are transferred to the […] FDSS6000 where MIP-1 alpha in 1% BSA is added at the EC80 final concentration. All plates must be read within 4 hours of the start of dye-loading. Wells +/−MIP-1alpha containing diluted DMSO instead of compound serve as the controls. Data are analyzed using Activity Base software.
(Calcium assays in cells follow changes in intracellular calcium, usually with a dye or a luminescent sensor.)

Consider `CC[C@H](NC(=O)c1cc(Br)cc2c1cnn2-c1ccc(F)cc1)c1ccc(S(C)(=O)=O)nc1` [6-Bromo-1-(4-fluoro-phenyl)-1H-indazole-4-carboxylic acid [(S)-1-(6-methanesulfonyl-pyridin-3-yl)-propyl]-amide], for which the IC50 is 23 nM.

One may read the IC50 as the concentration that gives 50% inhibition.
